One may read the IC50 as the concentration that inhibits the measured activity by half.

Results on eleven compounds are retold here after US12338199B2, “Bis-octahydrophenanthrene carboxamides and protein conjugates thereof” (REGENERON PHARMACEUTICALS, INC., priority 2017, dated 2025).

For one assay, the target named is T1, LXR alpha (Homo sapiens, UniProt Q13133).
T1 construct: LXR alpha or beta LBD-GST; purchased ThermoFisher PV4655
T1 sequence (Q13133 209-447 limits assumed): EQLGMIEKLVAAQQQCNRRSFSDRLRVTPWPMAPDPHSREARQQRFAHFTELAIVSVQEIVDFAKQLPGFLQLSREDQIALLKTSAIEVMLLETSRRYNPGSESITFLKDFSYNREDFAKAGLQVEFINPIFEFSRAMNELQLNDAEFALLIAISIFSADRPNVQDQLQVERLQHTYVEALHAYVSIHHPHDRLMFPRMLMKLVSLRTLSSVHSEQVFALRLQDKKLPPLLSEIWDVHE
Kind of assay: LanthaScreen TR-FRET LXR alpha Coactivator Assay (cell-free binding). The note with it: TR-FRET, 12-point curve; read-out: Cell free binding LXRα IC50. How it is done: (§1) To evaluate the ability of novel LXR agonists to bind to the LXR alpha and beta receptor, a cell-free binding assay was performed using a LanthaScreen TR-FRET LXR alpha Coactivator Assay Kit (ThermoFisher, Cat # PV4655) and LXR beta Coactivator Assay Kit (ThermoFisher, Cat # PV4658). The assay was performed according to the manufacturer's instructions. Briefly, a 3-fold serial dilution of LXR agonists were prepared in 100% DMSO starting at 100 μM (100× of final). Serial dilutions were further diluted 50-fold in nuclear receptor buffer F with 5 mM DTT, and transferred to a 384-well assay plate. Next, Fluorescein-D22, LXR alpha or beta LBD-GST, and Tb anti-GST antibody was sequentially added to 384-well assay plate. The plate was then incubated at rt for 2.5 hours while being protected from light. […] The IC50 values were determined using a four-parameter logistic equation over a 12-point response curve (GraphPad Prism).

In a further assay the test system is THP1/LXR-Luc cells. Kind of assay: THP1/LXR-Luc luciferase reporter bioassay. The class given is cell-based. The note with it: Homo sapiens, THP-1, 48 hours; for EC50: read-out: Activation of THP1/LXR-Luc cells: EC50; for Emax: relative to maximum activation of free payload 9d, read-out: Activation of THP1/LXR-Luc cells: Fold of activation. The source says: The fold activation in the cell-based assays (as described in Example 68, below) was defined based on the maximum activation of the free payload 9d.
A bioassay was developed to assess the activity of LXR agonists after internalization of an agonist or of a ncADC into cells and binding to LXR, a nuclear receptor, using a commercially available LXR reporter (referred to as LXR-Luc) that contains the firefly luciferase gene under control by minimal CMV promoter and tandem repeats of the LXR transcriptional response element. For this assay, a THP1 cell line, which is a human monocytic leukaemia line, was engineered to express full length human Her2 (expressing amino acids M1 through V1255 of accession number NP_004439.2). The subsequent stable cell line was further transduced with a Cignal LXR Luc Reporter (Qiagen, Cat # CLS-7041L). The resulting stable cell line is referred to herein as THP1/Her2/LXR-Luc. The Her2 cell surface expression on THP1/Her2/LXR-Luc cell line was confirmed by FACS (data not shown).
Additionally, a THP1 cell line was transduced with a Cignal LXR Luc Reporter (Qiagen, Cat # CLS-7041L) without the addition of Her2. The resulting stable cell line is referred to herein as THP1/LXR-Luc. All of the antibodies used in the subsequent bioassays were assessed for their ability to internalize and release a payload on the bioassay cell line used.
This example assessed the ability of the LXR agonists provided herein, reference compounds, and anti-Her2 antibody-LXR ncADC to activate LXR. The samples were tested in the THP1/LXR-Luc/Her2 bioassay. For the assay, either THP1/LXR-Luc cells or THP1/LXR-Luc/Her2 cells were seeded onto white 96 well plates at 30,000 cells/well in media containing RPMI supplemented with 10% FBS and pencillin/streptomycin (complete media). Subsequently 3-fold serial dilutions of antibody drug conjugates, unconjugated antibodies, or free payloads were added to the cells at final concentration ranging from 100 nM to 0.01 nM. After 48-hour or 72-hour incubation, luciferase activity was determined after the addition of One-Glo™ reagent (Promega, Cat # E6130) to each well of cells. Relative light units (RLUs) were measured on a Victor luminometer (PerkinElmer) and the EC5o values were determined using a four-parameter logistic equation over a 10-point dose response curve (GraphPad Prism) (FIG. 15). The fold activation is calculated based on the maximum activation of the free payload 9d.
On the technique in general: Reporter assays use an easily measured gene product as a stand-in for the process of interest.

The next assay concerns the target T2, LXR beta (Homo sapiens, UniProt P55055).
T2 construct: LXR alpha or beta LBD-GST; purchased ThermoFisher PV4658
T2 sequence (P55055 222-460 limits assumed): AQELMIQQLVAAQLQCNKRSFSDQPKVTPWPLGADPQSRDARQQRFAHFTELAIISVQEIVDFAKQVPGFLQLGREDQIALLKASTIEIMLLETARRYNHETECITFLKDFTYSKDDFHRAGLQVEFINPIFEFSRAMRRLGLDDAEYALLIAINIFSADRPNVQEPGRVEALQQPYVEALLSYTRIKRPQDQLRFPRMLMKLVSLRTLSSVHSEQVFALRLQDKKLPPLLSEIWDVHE
Put plainly: LanthaScreen TR-FRET LXR beta Coactivator Assay (cell-free binding). The note with it: TR-FRET, 12-point curve; read-out: Cell free binding LXRβ IC50. How it is done:
as §1
For orientation: In TR-FRET formats the signal depends on donor and acceptor labels being close together.

Structures can show the parent of a compound that is named as a salt.

In the case of `O=C(O)Cc1cccc(OCCCN(Cc2cccc(C(F)(F)F)c2Cl)CC(c2ccccc2)c2ccccc2)c1` [GW3965], the half-maximal inhibitory concentration (IC50) at LXR alpha and on LXR beta was under 0.01 µM in each case. Also, the EC50 in the assay with THP1/LXR-Luc cells is over 0.1 µM. In the assay with THP1/LXR-Luc cells, the Emax is over 75%.
Turning to `C[C@]1(C(=O)NC(=O)[C@@]2(C)CCC[C@]3(C)c4cc(NC(=O)CCN)ccc4CC[C@@H]23)CCC[C@]2(C)c3cc(O)ccc3CC[C@@H]12` [Compound 9i, (1S,4aS,10aR)-6-(3-Aminopropanamido)-N-((1S,4aS,10aR)-6-hydroxy-1,4a-dimethyl-1,2,3,4,4a,9,10,10a-octahydrophenanthrene-1-carbonyl)-1,4a-dimethyl-1,2,3,4,4a,9,10,10a-octahydrophenanthrene-1-carboxamide], the IC50 on LXR alpha was under 0.01 µM. Further, in the assay on THP1/LXR-Luc cells, the EC50 was in the range of 0.01 to 0.1 µM and the Emax was 25 to 75%. Further, the IC50 at LXR beta was under 0.01 µM.
As to `C[C@]1(C(=O)NC(=O)[C@@]2(C)CCC[C@]3(C)c4cc(CN)ccc4CC[C@@H]23)CCC[C@]2(C)c3cc(O)ccc3CC[C@@H]12` [Compound 9p, (1S,4aS,10aR)-6-(Aminomethyl)-N-((1S,4aS,10aR)-6-hydroxy-1,4a-dimethyl-1,2,3,4,4a,9,10,10a-octahydrophenanthrene-1-carbonyl)-1,4a-dimethyl-1,2,3,4,4a,9,10,10a-octahydrophenanthrene-1-carboxamide; Trifluoroacetic Acid Salt], at LXR alpha, the IC50 is 0.01 to 0.1 µM. Further, in the assay with THP1/LXR-Luc cells, the EC50 lay in the range of 0.001 to 0.01 µM and the Emax was over 75%. Also, the half-inhibitory concentration (IC50) at LXR beta is under 0.01 µM.
The matching figures for `CNCC(=O)Nc1ccc2c(c1)[C@@]1(C)CCC[C@](C)(C(=O)NC(=O)[C@@]3(C)CCC[C@]4(C)c5cc(O)ccc5CC[C@@H]34)[C@@H]1CC2` [Compound 9k, (1S,4aS,10aR)—N-((1S,4aS,10aR)-1,4a-Dimethyl-6-(2-(methylamino)acetamido)-1,2,3,4,4a,9,10,10a-octahydrophenanthrene-1-carbonyl)-6-hydroxy-1,4a-dimethyl-1,2,3,4,4a,9,10,10a-octahydrophenanthrene-1-carboxamide; Trifluoroacetic Acid Salt]: 0.01 to 0.1 µM, 0.001 to 0.01 µM, over 75% and under 0.01 µM.
Regarding `C[C@]1(C(=O)NC(=O)[C@@]2(C)CCC[C@]3(C)c4cc(OCCN)ccc4CC[C@@H]23)CCC[C@]2(C)c3cc(O)ccc3CC[C@@H]12` [Compound 9c, (1S,4aS,10aR)-6-(2-Aminoethoxy)-N-((1S,4aS,10aR)-6-hydroxy-1,4a-dimethyl-1,2,3,4,4a,9,10,10a-octahydrophenanthrene-1-carbonyl)-1,4a-dimethyl-1,2,3,4,4a,9,10,10a-octahydrophenanthrene-1-carboxamide], at LXR alpha, the IC50 was in the range of 0.01 to 0.1 µM. In the assay with THP1/LXR-Luc cells, the EC50 is 0.01 to 0.1 µM and the Emax is over 75%. Besides, on LXR beta, the IC50 is under 0.01 µM.
As to `C[C@]1(C(=O)NC(=O)[C@@]2(C)CCC[C@]3(C)c4cc(NC(=O)CCCC(=O)O)ccc4CC[C@@H]23)CCC[C@]2(C)c3cc(O)ccc3CC[C@@H]12` [Compound 9q, 4-{[(4bS,8S,8aR)-8-{[(1S,4aS,10aR)-6-Hydroxy-1,4a-dimethyl-1,2,3,4,4a,9,10,10a-octahydrophenanthrene-1-carbonyl]carbamoyl}-4b,8-dimethyl-4b,5,6,7,8,8a,9,10-octahydrophenanthren-3-yl]carbamoyl}butanoic Acid], the 50% inhibitory concentration (IC50) on LXR alpha and at LXR beta was under 0.01 µM each time. For the same compound, in the assay with THP1/LXR-Luc cells, the EC50 was in the range of 0.01 to 0.1 µM. In the assay with THP1/LXR-Luc cells, the Emax is over 75%.
On to `C[C@]1(CNC(=O)[C@@]2(C)CCC[C@]3(C)c4cc(O)ccc4CC[C@@H]23)CCC[C@]2(C)c3cc(O)ccc3CC[C@@H]12` [Compound 9u, (1S,4aS,10aR)—N-{[(1S,4aS,10aR)-6-Hydroxy-1,4a-dimethyl-1,2,3,4,4a,9,10,10a-octahydrophenanthren-1-yl]methyl}-6-hydroxy-1,4a-dimethyl-1,2,3,4,4a,9,10,10a-octahydrophenanthrene-1-carboxamide], for which, in the assay with THP1/LXR-Luc cells, the EC50 was in the range of 0.001 to 0.01 µM and the Emax is 25 to 75%.
For `C[C@]1(C(=O)NC(=O)[C@@]2(C)CCC[C@]3(C)c4cc(N5CCNCC5)ccc4CC[C@@H]23)CCC[C@]2(C)c3cc(O)ccc3CC[C@@H]12` [Compound 9e, (1S,4aS,10aR)—N-((1S,4aS,10aR)-1,4a-Dimethyl-6-(piperazin-1-yl)-1,2,3,4,4a,9,10,10a-octahydrophenanthrene-1-carbonyl)-6-hydroxy-1,4a-dimethyl-1,2,3,4,4a,9,10,10a-octahydrophenanthrene-1-carboxamide], the half-maximal inhibitory concentration (IC50) on LXR alpha was under 0.01 µM. Further, in the assay on THP1/LXR-Luc cells, the EC50 was 0.001 to 0.01 µM and the Emax is over 75%. In addition, at LXR beta, the IC50 is under 0.01 µM.
Regarding `C[C@]1(C(=O)NC(=O)[C@@]2(C)CCC[C@]3(C)c4cc(NC(=O)CNCC(=O)O)ccc4CC[C@@H]23)CCC[C@]2(C)c3cc(O)ccc3CC[C@@H]12` [Compound 9r, 2-[({[(4bS,8S,8aR)-8-{[(1S,4aS,10aR)-6-Hydroxy-1,4a-dimethyl-1,2,3,4,4a,9,10,10a-octahydrophenanthrene-1-carbonyl]carbamoyl}-4b,8-dimethyl-4b,5,6,7,8,8a,9,10-octahydrophenanthren-3-yl]carbamoyl}methyl)amino]acetic Acid; Trifluoroacetic Acid Salt], on LXR alpha, the IC50 was under 0.01 µM. In the assay with THP1/LXR-Luc cells, the EC50 was 0.01 to 0.1 µM and the Emax is over 75%. Also, on LXR beta, the half-inhibitory concentration (IC50) was under 0.01 µM.
For `O=S(=O)(c1ccccc1)N(CC(F)(F)F)c1ccc(C(O)(C(F)(F)F)C(F)(F)F)cc1` [Compound T0901317, reference compound], in the assay on THP1/LXR-Luc cells, the EC50 lay within 0.01 to 0.1 µM and the Emax was over 75%.
The matching figures for `C[C@]1(C(=O)NC(=O)[C@@]2(C)CCC[C@]3(C)c4cc(O)ccc4CC[C@@H]23)CCC[C@]2(C)c3cc(O)ccc3CC[C@@H]12` [Compound 9a, (1S,4aS,10aR)-6-Hydroxy-N-((1S,4aS,10aR)-6-hydroxy-1,4a-dimethyl-1,2,3,4,4a,9,10,10a-octahydrophenanthrene-1-carbonyl)-1,4a-dimethyl-1,2,3,4,4a,9,10,10a-octahydrophenanthrene-1-carboxamide]: 0.001 to 0.01 µM and over 75%.
